Measurements taken from US20240092758A1, “IMIDAZOLO INDAZOLE COMPOUNDS AS JAK INHIBITORS” (Theravance Biopharma R&D IP, LLC, priority 2021, published 2024).

Experiments:
[1] = tested on: IL-13 induced STAT6 phosphorylation in BEAS-2B human lung epithelial cells; test: Cellular JAKI potency assay (BEAS-2B); format: cell-based; details: Homo sapiens, BEAS-2B, BEAS-2B cells, read-out: BEAS2B pIC50 (converted)
Experimental: The JAKI cellular potency assay was carried out by measuring inhibition of interleukin-13 (IL-13, R&D Systems) induced STAT6 phosphorylation in BEAS-2B human lung epithelial cells (ATCC). BEAS-2B cells were grown at 37° C. in a 5% CO2 humidified incubator in 50% DMEM/50% F-12 medium (Life Technologies) supplemented with 10% FBS (Hyclone), 100 U/mL penicillin, 100 μg/mL streptomycin (Life Technologies), and 2 mM GlutaMAX (Life Technologies). On day 1 of the assay, cells were seeded at a 7,500 cells/well density in white poly-D-lysine-coated 384-well plates (Corning) with 25 μL medium and were allowed to adhere overnight in the incubator. On day 2 of the assay, the medium was removed and replaced with 12 μL of assay buffer (Hank's Balanced Salt Solution/HBSS, 25 mM HEPES, and 1 mg/ml bovine serum albumin/BSA) containing dose-responses of test compounds. Compounds were serially diluted in DMSO and then diluted another 1000-fold in media to bring the final DMSO concentration to 0.1%. Cells were incubated with test compounds at 37° C. for 1 h and followed by the addition of 12 μl of pre-warmed IL-13 (80 ng/mL in assay buffer) for stimulation. After incubating at 37° C. for 30 min, the assay buffer (containing compound and IL-13) was removed, and 10 μL of cell lysis buffer (25 mM HEPES, 0.1% SDS, 1% NP-40, 5 mM MgCl2, 1.3 mM EDTA, 1 mM EGTA, supplemented with Complete Ultra mini protease inhibitors and PhosSTOP from Roche Diagnostics). The plates were shaken at ambient temperature for 30 min before the addition of detection reagents. Levels of pSTAT6 were measured using the AlphaLISA SureFire Ultra pSTAT6 (Tyr641) assay kit from PerkinElmer. For dose-response analysis, percent inhibition data were plotted vs. compound concentrations, and IC50 values were determined from a 4-parameter robust fit model with the Graphpad Prism software. Results are expressed as the negative logarithm of the IC50 value, pIC50.
Test compounds having a lower IC50 value or higher pIC50 value in this assay show greater inhibition of IL-13 induced STAT6 phosphorylation.

[2] = biological target: JAK2 (Homo sapiens (Human), UniProt O60674); test: Biochemical JAK kinase assay (LanthaScreen), JAK2; details: for Ki: read-out: JAK2 pKi (converted)
Sequence of JAK2 (O60674 whole entry): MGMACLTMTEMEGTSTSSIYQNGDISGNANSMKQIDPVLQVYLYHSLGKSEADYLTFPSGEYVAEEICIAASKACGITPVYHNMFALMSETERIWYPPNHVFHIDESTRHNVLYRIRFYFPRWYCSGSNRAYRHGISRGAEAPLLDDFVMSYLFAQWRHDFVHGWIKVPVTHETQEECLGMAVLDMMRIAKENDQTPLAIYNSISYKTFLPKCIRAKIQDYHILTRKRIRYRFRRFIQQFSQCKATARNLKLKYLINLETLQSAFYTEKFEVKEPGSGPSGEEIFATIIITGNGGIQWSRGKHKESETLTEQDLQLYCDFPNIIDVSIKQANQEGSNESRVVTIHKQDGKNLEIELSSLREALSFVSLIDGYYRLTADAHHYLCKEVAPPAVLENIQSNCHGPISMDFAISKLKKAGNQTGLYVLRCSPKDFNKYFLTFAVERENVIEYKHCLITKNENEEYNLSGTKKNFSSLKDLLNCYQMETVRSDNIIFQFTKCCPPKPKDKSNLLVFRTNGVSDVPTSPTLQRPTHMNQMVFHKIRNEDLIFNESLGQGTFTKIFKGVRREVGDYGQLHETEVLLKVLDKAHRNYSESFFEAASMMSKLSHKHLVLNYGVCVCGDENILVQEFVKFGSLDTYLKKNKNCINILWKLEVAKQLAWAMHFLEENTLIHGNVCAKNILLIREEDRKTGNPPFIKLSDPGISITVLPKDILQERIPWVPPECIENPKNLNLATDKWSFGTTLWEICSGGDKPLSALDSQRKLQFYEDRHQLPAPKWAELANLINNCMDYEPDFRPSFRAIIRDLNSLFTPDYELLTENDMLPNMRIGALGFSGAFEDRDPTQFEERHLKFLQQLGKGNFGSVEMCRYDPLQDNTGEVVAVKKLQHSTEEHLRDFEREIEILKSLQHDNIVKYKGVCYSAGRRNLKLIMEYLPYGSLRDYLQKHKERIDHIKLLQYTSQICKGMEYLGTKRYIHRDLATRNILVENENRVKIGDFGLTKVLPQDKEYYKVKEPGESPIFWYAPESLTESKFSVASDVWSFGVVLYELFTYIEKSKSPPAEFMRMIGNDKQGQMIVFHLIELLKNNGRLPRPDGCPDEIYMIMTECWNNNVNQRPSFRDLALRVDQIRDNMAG
Experimental: (§1) A panel of four LanthaScreen JAK biochemical assays (JAK1, 2, 3 and Tyk2) were carried in a common kinase reaction buffer (50 mM HEPES, pH 7.5, 0.01% Brij-35, 10 mM MgCl2, and 1 mM EGTA). Recombinant GST-tagged JAK enzymes and a GFP-tagged STAT1 peptide substrate were obtained from Life Technologies.
(§2) Serially diluted compounds were pre-incubated with each of the four JAK enzymes and the substrate in white 384-well microplates (Corning) at ambient temperature for 1 h. ATP was subsequently added to initiate the kinase reactions in 10 μL total volume, with 1% DMSO. The final enzyme concentrations for JAK1, 2, 3 and Tyk2 are 4.2 nM, 0.1 nM, 1 nM, and 0.25 nM respectively; the corresponding Km ATP concentrations used are 25 μM, 3 μM, 1.6 μM, and 10 μM; while the substrate concentration is 200 nM for all four assays. Kinase reactions were allowed to proceed for 1 hour at ambient temperature before a 10 μL preparation of EDTA (10 mM final concentration) and Tb-anti-pSTAT1 (pTyr701) antibody (Life Technologies, 2 nM final concentration) in TR-FRET dilution buffer (Life Technologies) was added. The plates were allowed to incubate at ambient temperature for 1 h before being read on the EnVision reader (Perkin Elmer). Emission ratio signals (520 nm/495 nm) were recorded and utilized to calculate the percent inhibition values based on DMSO and background controls.
(§3) For dose-response analysis, percent inhibition data were plotted vs. compound concentrations, and IC50 values were determined from a 4-parameter robust fit model with the Prism software (GraphPad Software). Results were expressed as pIC50 (negative logarithm of IC50) and subsequently converted to pKi (negative logarithm of dissociation constant, Ki) using the Cheng-Prusoff equation.
(§4) Test compounds having a lower Ki value or higher pKi value in the four JAK assays show greater inhibition of JAK activity.

[3] = biological target: JAK1 (Homo sapiens (Human), UniProt P23458); test: Biochemical JAK kinase assay (LanthaScreen), JAK1; details: for Ki: read-out: JAK1 pKi (converted)
Sequence of JAK1 (P23458 whole entry): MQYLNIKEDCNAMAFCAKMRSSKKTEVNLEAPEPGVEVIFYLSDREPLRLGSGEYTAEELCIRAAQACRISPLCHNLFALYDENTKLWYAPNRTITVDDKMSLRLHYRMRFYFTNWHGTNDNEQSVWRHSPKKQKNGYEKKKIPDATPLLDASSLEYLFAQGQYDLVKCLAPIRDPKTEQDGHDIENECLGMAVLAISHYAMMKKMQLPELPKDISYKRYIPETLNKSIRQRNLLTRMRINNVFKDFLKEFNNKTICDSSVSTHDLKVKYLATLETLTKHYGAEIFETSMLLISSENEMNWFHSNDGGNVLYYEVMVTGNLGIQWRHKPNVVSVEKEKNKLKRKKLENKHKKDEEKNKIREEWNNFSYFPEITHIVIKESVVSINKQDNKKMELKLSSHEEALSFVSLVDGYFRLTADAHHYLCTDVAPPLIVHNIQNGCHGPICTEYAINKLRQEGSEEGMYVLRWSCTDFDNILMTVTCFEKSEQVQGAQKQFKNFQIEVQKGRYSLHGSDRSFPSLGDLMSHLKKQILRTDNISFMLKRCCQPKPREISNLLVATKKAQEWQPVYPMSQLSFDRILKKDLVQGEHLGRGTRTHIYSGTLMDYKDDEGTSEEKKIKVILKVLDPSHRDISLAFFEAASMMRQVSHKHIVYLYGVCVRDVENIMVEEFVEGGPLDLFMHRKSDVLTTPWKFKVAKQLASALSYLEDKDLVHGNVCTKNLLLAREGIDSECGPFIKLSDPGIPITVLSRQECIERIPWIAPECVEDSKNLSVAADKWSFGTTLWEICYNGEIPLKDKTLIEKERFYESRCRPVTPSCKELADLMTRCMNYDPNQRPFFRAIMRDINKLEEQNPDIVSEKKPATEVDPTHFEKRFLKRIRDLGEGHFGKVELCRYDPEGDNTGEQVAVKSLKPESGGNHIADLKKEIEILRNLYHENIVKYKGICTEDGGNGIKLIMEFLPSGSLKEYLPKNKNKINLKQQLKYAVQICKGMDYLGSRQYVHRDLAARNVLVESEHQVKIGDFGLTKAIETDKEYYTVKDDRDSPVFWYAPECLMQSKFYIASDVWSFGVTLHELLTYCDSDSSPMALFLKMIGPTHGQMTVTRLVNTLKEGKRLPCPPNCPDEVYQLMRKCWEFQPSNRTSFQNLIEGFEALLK
Experimental: as §1, §2, §3, §4

CCc1cc(O)ccc1-c1ccc2c(-c3nc(C4=CCN(CC5COC5)C4)c[nH]3)n[nH]c2c1 [Example 71]
IC50 [1]: 3.16 to 10 nM | JAK2 pKi [2]: A (A represents a pKi value ≥10 (Ki≤0.1 nM)) | JAK1 pKi [3]: A (A represents a pKi value ≥10 (Ki≤0.1 nM))

CCc1cc(O)ccc1-c1ccc2c(-c3nc(C4=CCN(C5CCOCC5)C4)c[nH]3)n[nH]c2c1 [Example 72]
IC50 [1]: 3.16 to 10 nM | JAK2 pKi [2]: A (A represents a pKi value ≥10 (Ki≤0.1 nM)) | JAK1 pKi [3]: A (A represents a pKi value ≥10 (Ki≤0.1 nM))

CCc1cc(O)ccc1-c1ccc2c(-c3nc(C4=CCN(C5COC5)C4)c[nH]3)n[nH]c2c1 [Example 73]
IC50 [1]: 10 to 31.6 nM | JAK2 pKi [2]: A (A represents a pKi value ≥10 (Ki≤0.1 nM)) | Ki [3]: 0.1 to 1 nM

CCc1cc(O)ccc1-c1ccc2c(-c3nc(C4=CCN(CC5COC5)C4)c[nH]3)n[nH]c2c1F [Example 74]
IC50 [1]: 10 to 31.6 nM | JAK2 pKi [2]: A (A represents a pKi value ≥10 (Ki≤0.1 nM)) | Ki [3]: 0.1 to 1 nM

CCc1cc(O)ccc1-c1ccc2c(-c3nc(C4=CCN(CCSC)CC4)c[nH]3)n[nH]c2c1 [Example 76]
IC50 [1]: 10 to 31.6 nM | Ki [2]: 0.1 to 1 nM | Ki [3]: 0.1 to 1 nM

CCc1cc(O)ccc1-c1ccc2c(-c3nc(C4=CCN(CCS(C)(=O)=O)CC4)c[nH]3)n[nH]c2c1 [Example 77]
IC50 [1]: 10 to 31.6 nM | JAK2 pKi [2]: A (A represents a pKi value ≥10 (Ki≤0.1 nM)) | Ki [3]: 0.1 to 1 nM

CCc1cc(O)ccc1-c1ccc2c(-c3nc(C4=CCN(CC(=O)NC)CC4)c[nH]3)n[nH]c2c1 [Example 78]
IC50 [1]: 10 to 31.6 nM | JAK2 pKi [2]: A (A represents a pKi value ≥10 (Ki≤0.1 nM)) | Ki [3]: 0.1 to 1 nM

CCc1cc(O)ccc1-c1ccc2c(-c3nc(C4=CCN(CC(=O)NC(C)(C)C)CC4)c[nH]3)n[nH]c2c1 [Example 79]
IC50 [1]: 10 to 31.6 nM | Ki [2]: 0.1 to 1 nM | Ki [3]: 0.1 to 1 nM

CCc1cc(O)ccc1-c1ccc2c(-c3nc(C4=CCN(CCS(=O)(=O)NC)CC4)c[nH]3)n[nH]c2c1 [Example 80]
IC50 [1]: 10 to 31.6 nM | JAK2 pKi [2]: A (A represents a pKi value ≥10 (Ki≤0.1 nM)) | Ki [3]: 0.1 to 1 nM

CCc1cc(O)ccc1-c1ccc2c(-c3nc(C4=CCN(CCS(C)(=O)=O)CC4)c[nH]3)n[nH]c2c1F [Example 82]
IC50 [1]: 10 to 31.6 nM | Ki [2]: 0.1 to 1 nM | Ki [3]: 0.1 to 1 nM

CCc1cc(O)ccc1-c1ccc2c(-c3nc(C4=CCN(CC(=O)NC(C)(C)C)CC4)c[nH]3)n[nH]c2c1F [Example 83]
IC50 [1]: 31.6 to 100 nM | Ki [2]: 0.1 to 1 nM | Ki [3]: 1 to 10 nM

CCc1cc(O)ccc1-c1ccc2c(-c3nc(C4=CCN(C5CCNC5=O)CC4)c[nH]3)n[nH]c2c1F (stereo not drawn) [Example 84]
IC50 [1]: 31.6 to 100 nM | Ki [2]: 0.1 to 1 nM | Ki [3]: 0.1 to 1 nM

CCc1cc(O)ccc1-c1ccc2c(-c3nc(C4=CCN(CCS(=O)(=O)NC)CC4)c[nH]3)n[nH]c2c1F [Example 85]
IC50 [1]: 31.6 to 100 nM | Ki [2]: 0.1 to 1 nM | Ki [3]: 0.1 to 1 nM

CCc1cc(O)ccc1-c1ccc2c(-c3nc(C4=CCCN(CCSC)C4)c[nH]3)n[nH]c2c1 [Example 86]
IC50 [1]: 10 to 31.6 nM | Ki [2]: 0.1 to 1 nM | Ki [3]: 0.1 to 1 nM

CCc1cc(O)ccc1-c1ccc2c(-c3nc(C4=CCCN(CCS(C)(=O)=O)C4)c[nH]3)n[nH]c2c1 [Example 87]
IC50 [1]: 10 to 31.6 nM | JAK2 pKi [2]: A (A represents a pKi value ≥10 (Ki≤0.1 nM)) | Ki [3]: 0.1 to 1 nM

CCc1cc(O)ccc1-c1ccc2c(-c3nc(C4=CCCN(CC(=O)NC)C4)c[nH]3)n[nH]c2c1 [Example 88]
IC50 [1]: 10 to 31.6 nM | JAK2 pKi [2]: A (A represents a pKi value ≥10 (Ki≤0.1 nM)) | Ki [3]: 0.1 to 1 nM

CCc1cc(O)ccc1-c1ccc2c(-c3nc(C4=CCCN(CCS(=O)(=O)NC)C4)c[nH]3)n[nH]c2c1 [Example 89]
IC50 [1]: 10 to 31.6 nM | JAK2 pKi [2]: A (A represents a pKi value ≥10 (Ki≤0.1 nM)) | Ki [3]: 0.1 to 1 nM

CCc1cc(O)ccc1-c1ccc2c(-c3nc(C4=CCCN(CCS(C)(=O)=O)C4)c[nH]3)n[nH]c2c1F [Example 91]
IC50 [1]: 10 to 31.6 nM | Ki [2]: 0.1 to 1 nM | Ki [3]: 0.1 to 1 nM

CCc1cc(O)ccc1-c1ccc2c(-c3nc(C4=CCCN(CC(=O)NC)C4)c[nH]3)n[nH]c2c1F [Example 92]
IC50 [1]: 10 to 31.6 nM | Ki [2]: 0.1 to 1 nM | Ki [3]: 1 to 10 nM

CCc1cc(O)ccc1-c1ccc2c(-c3nc(C4=CCN(CC(=O)NC)C4)c[nH]3)n[nH]c2c1 [Example 93]
IC50 [1]: 3.16 to 10 nM | JAK2 pKi [2]: A (A represents a pKi value ≥10 (Ki≤0.1 nM)) | Ki [3]: 0.1 to 1 nM

CCc1cc(O)ccc1-c1ccc2c(-c3nc(C4=CCN(CCC(=O)NC)C4)c[nH]3)n[nH]c2c1 [Example 95]
IC50 [1]: 10 to 31.6 nM | JAK2 pKi [2]: A (A represents a pKi value ≥10 (Ki≤0.1 nM)) | JAK1 pKi [3]: A (A represents a pKi value ≥10 (Ki≤0.1 nM))

CCc1cc(O)ccc1-c1ccc2c(-c3nc(C4=CCN(CCS(=O)(=O)NC)C4)c[nH]3)n[nH]c2c1 [Example 96]
IC50 [1]: 10 to 31.6 nM | JAK2 pKi [2]: A (A represents a pKi value ≥10 (Ki≤0.1 nM)) | Ki [3]: 0.1 to 1 nM

CCc1cc(O)ccc1-c1ccc2c(-c3nc(C4=CCN(CC(=O)NC)C4)c[nH]3)n[nH]c2c1F [Example 97]
IC50 [1]: 3.16 to 10 nM | JAK2 pKi [2]: A (A represents a pKi value ≥10 (Ki≤0.1 nM)) | Ki [3]: 0.1 to 1 nM

CCc1cc(O)ccc1-c1ccc2c(-c3nc(C4=CCN(C5CCNC5=O)C4)c[nH]3)n[nH]c2c1F (stereo not drawn) [Example 98]
IC50 [1]: 31.6 to 100 nM | JAK2 pKi [2]: A (A represents a pKi value ≥10 (Ki≤0.1 nM)) | Ki [3]: 0.1 to 1 nM

CCc1cc(O)ccc1-c1ccc2c(-c3nc(C4=CCN(CCNS(C)(=O)=O)CC4)c[nH]3)n[nH]c2c1 [Example 99]
IC50 [1]: 10 to 31.6 nM | JAK2 pKi [2]: A (A represents a pKi value ≥10 (Ki≤0.1 nM)) | JAK1 pKi [3]: A (A represents a pKi value ≥10 (Ki≤0.1 nM))

CCc1cc(O)ccc1-c1ccc2c(-c3nc(C4=CCN(CCNC(C)=O)CC4)c[nH]3)n[nH]c2c1 [Example 100]
IC50 [1]: 3.16 to 10 nM | JAK2 pKi [2]: A (A represents a pKi value ≥10 (Ki≤0.1 nM)) | JAK1 pKi [3]: A (A represents a pKi value ≥10 (Ki≤0.1 nM))

CCc1cc(O)ccc1-c1ccc2c(-c3nc(C4=CCN(CCNS(=O)(=O)C(C)C)CC4)c[nH]3)n[nH]c2c1 [Example 101]
IC50 [1]: 10 to 31.6 nM | JAK2 pKi [2]: A (A represents a pKi value ≥10 (Ki≤0.1 nM)) | Ki [3]: 0.1 to 1 nM

CCc1cc(O)ccc1-c1ccc2c(-c3nc(C4=CCN(CCNC(=O)C(C)C)CC4)c[nH]3)n[nH]c2c1 [Example 102]
IC50 [1]: 3.16 to 10 nM | JAK2 pKi [2]: A (A represents a pKi value ≥10 (Ki≤0.1 nM)) | JAK1 pKi [3]: A (A represents a pKi value ≥10 (Ki≤0.1 nM))

CCc1cc(O)ccc1-c1ccc2c(-c3nc(C4=CCN(CCCNS(C)(=O)=O)CC4)c[nH]3)n[nH]c2c1 [Example 103]
IC50 [1]: 10 to 31.6 nM | JAK2 pKi [2]: A (A represents a pKi value ≥10 (Ki≤0.1 nM)) | JAK1 pKi [3]: A (A represents a pKi value ≥10 (Ki≤0.1 nM))

CCc1cc(O)ccc1-c1ccc2c(-c3nc(C4=CCN(CCCNC(C)=O)CC4)c[nH]3)n[nH]c2c1 [Example 104]
IC50 [1]: 3.16 to 10 nM | JAK2 pKi [2]: A (A represents a pKi value ≥10 (Ki≤0.1 nM)) | JAK1 pKi [3]: A (A represents a pKi value ≥10 (Ki≤0.1 nM))

CCc1cc(O)ccc1-c1ccc2c(-c3nc(C4=CCN(CCCNS(=O)(=O)C(C)C)CC4)c[nH]3)n[nH]c2c1 [Example 105]
IC50 [1]: 10 to 31.6 nM | JAK2 pKi [2]: A (A represents a pKi value ≥10 (Ki≤0.1 nM)) | JAK1 pKi [3]: A (A represents a pKi value ≥10 (Ki≤0.1 nM))
